Experimental data reported in ChEMBL document CHEMBL3425437, “Selective Inhibitors of Cyclin G Associated Kinase (GAK) as Anti-Hepatitis C Agents” (J Med Chem, 2015).

Legend:
[1] = biological target: T1, Cyclin-G-associated kinase (Homo sapiens, UniProt O14976); test: Binding affinity to human GAK fused to T7 bacteriophage expressed in Escherichia coli BL21 after 1 hr by qPCR analysis
T1 sequence (O14976 whole entry): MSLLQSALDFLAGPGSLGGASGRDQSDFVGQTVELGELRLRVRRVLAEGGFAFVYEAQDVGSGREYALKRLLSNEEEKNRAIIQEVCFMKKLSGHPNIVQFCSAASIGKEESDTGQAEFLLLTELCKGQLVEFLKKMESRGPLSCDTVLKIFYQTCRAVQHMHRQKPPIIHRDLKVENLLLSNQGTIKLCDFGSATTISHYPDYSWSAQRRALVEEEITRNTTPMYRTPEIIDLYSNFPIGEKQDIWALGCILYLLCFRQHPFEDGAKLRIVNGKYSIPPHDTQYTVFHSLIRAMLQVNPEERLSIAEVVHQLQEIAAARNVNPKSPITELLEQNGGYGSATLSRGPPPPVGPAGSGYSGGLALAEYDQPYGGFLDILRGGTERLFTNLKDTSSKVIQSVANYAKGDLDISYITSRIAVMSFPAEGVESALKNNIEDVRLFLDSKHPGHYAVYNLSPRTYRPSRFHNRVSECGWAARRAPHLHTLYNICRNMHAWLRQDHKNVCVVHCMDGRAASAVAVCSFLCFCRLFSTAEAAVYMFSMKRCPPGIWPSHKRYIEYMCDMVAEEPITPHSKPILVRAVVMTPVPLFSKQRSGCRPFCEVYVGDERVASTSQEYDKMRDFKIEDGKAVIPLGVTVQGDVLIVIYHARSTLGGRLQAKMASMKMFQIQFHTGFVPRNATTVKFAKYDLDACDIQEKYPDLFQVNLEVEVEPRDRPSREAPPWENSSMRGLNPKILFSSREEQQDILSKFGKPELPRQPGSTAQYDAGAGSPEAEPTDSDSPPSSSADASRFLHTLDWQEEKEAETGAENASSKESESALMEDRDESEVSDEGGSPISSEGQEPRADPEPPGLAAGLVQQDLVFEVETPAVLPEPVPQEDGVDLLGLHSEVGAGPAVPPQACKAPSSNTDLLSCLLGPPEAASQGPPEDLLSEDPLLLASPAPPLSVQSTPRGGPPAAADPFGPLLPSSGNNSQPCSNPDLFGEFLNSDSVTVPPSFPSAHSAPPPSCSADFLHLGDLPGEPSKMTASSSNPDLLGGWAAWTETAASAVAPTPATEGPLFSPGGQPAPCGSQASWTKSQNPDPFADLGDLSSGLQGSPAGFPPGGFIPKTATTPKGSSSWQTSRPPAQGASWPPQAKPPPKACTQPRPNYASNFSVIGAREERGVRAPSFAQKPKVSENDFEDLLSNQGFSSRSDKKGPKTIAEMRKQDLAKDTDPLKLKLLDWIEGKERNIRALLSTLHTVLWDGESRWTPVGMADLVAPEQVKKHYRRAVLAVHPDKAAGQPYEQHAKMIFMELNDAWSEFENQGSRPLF

Hepatitis C virus [2] = test: Antiviral activity against Hepatitis C virus J6/JFH infected in human Huh7.5 cells assessed as inhibition of viral replication measured after 72 hrs by luciferase reporter gene assay; assay type: functional, organism-based, Hepacivirus hominis; conditions: Huh-7, 72 h
[3] = Cytotoxicity against human Huh7.5 cells infected with Hepatitis C virus J6/JFH assessed as effect on cell viability after 72 hrs by Alamarblue assay; assay type: cell-based; conditions: huh-7, 72 h
Hepatitis C virus [4] = test: Antiviral activity against Hepatitis C virus H77 pseudoparticle assessed as inhibition of viral entry into human Huh7.5 cells after 4 hrs by luciferase reporter gene assay; assay type: functional, cell-based, Hepacivirus hominis; conditions: genotype 1a H77, Huh-7, 4 h
[5] = Cytotoxicity against human Huh7.5 cells infected with Hepatitis C virus H77 pseudoparticle assessed as effect on cell viability after 4 hrs by Alamarblue assay; assay type: cell-based; conditions: huh-7, 4 h
Hepatitis C virus [6] = test: Antiviral activity against Hepatitis C virus J6/JFH electroporated in human Huh7.5 cells assessed as inhibition of intracellular infectivity drug treated every 24 hrs for 72 hrs measured 72 hrs post electroporation by luciferase reporter gene assay; assay type: functional, organism-based, Hepacivirus hominis; conditions: Huh-7
Hepatitis C virus [7] = test: Antiviral activity against Hepatitis C virus J6/JFH infected in human Huh7.5 cells assessed as inhibition of extracellular infectivity drug treated every 24 hrs for 72 hrs measured after 72 hrs by luciferase reporter gene assay; assay type: functional, organism-based, Hepacivirus hominis; conditions: Huh-7
[8] = biological target: Dual specificity protein kinase CLK2 (Homo sapiens, UniProt P49760); test: Binding affinity to human CLK2
Dual specificity protein kinase CLK2, sequence (P49760 whole entry): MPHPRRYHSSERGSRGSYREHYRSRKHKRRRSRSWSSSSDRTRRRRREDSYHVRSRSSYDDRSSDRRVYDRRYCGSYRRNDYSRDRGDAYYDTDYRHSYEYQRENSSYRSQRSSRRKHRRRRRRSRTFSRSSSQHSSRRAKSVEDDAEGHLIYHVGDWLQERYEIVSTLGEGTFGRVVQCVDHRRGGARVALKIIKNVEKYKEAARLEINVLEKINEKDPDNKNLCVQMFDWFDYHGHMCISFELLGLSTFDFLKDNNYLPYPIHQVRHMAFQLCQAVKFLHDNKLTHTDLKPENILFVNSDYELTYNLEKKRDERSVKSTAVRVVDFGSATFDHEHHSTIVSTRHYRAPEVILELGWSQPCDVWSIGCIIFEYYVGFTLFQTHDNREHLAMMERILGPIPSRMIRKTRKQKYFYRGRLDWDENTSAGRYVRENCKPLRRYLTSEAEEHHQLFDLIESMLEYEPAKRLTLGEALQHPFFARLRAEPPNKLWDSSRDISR

[9] = biological target: Macrophage colony-stimulating factor 1 receptor (Homo sapiens, UniProt P07333); test: Binding affinity to human CSF1R
Macrophage colony-stimulating factor 1 receptor, sequence (P07333 whole entry): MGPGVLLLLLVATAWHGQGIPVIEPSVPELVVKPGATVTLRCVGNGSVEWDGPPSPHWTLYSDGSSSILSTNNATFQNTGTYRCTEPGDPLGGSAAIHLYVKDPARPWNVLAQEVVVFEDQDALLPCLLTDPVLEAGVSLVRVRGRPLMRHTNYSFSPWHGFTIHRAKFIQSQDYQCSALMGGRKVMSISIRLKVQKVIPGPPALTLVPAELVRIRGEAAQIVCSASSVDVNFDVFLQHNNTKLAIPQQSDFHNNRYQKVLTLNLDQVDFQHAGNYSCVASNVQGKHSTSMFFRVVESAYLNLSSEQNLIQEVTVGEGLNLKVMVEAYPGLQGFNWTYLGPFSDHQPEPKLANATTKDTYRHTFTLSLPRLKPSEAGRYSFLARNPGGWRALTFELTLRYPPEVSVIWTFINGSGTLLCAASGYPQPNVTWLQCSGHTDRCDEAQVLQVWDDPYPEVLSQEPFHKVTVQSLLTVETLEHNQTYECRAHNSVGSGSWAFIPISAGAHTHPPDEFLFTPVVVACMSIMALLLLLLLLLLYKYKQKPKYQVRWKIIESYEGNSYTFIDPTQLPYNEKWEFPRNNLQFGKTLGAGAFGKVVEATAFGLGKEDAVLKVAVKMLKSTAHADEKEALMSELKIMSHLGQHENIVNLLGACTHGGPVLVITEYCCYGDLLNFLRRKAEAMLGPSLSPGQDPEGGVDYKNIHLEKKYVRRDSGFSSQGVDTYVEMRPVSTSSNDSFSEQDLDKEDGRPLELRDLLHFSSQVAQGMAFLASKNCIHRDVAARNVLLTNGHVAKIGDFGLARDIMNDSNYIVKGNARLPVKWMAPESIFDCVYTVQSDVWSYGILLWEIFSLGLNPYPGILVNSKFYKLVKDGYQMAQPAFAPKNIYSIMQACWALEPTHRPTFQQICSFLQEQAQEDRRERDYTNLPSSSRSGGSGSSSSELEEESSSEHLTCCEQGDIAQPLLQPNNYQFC

[10] = biological target: T2, Receptor-type tyrosine-protein kinase FLT3 (Homo sapiens, UniProt P36888); test: Binding affinity to human FLT3
T2 sequence (P36888 whole entry): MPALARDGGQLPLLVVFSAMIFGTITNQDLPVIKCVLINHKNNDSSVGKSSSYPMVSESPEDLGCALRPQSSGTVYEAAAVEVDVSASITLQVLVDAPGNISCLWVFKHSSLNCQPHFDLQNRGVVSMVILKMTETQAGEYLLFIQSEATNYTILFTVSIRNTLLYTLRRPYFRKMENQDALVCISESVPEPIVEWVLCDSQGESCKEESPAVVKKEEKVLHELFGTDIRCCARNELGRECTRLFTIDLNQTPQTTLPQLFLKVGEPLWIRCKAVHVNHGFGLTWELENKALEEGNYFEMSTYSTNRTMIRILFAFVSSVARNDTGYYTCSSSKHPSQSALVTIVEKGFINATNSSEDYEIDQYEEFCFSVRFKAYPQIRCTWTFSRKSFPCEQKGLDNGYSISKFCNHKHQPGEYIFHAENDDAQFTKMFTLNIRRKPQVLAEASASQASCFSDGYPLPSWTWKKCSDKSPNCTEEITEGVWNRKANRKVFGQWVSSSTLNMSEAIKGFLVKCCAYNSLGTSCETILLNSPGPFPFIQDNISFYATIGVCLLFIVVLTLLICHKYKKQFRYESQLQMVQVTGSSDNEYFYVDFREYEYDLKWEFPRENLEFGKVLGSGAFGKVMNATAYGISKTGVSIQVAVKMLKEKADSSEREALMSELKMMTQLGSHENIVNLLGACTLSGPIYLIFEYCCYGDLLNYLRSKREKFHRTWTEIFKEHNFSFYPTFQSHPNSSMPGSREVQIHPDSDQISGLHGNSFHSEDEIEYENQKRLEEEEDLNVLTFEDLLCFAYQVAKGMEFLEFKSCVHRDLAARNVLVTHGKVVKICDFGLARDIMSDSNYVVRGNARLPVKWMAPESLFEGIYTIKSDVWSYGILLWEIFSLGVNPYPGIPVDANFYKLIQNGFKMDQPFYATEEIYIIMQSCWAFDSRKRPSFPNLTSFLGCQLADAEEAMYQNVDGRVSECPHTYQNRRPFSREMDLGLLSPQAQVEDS

[11] = biological target: Mast/stem cell growth factor receptor Kit (Homo sapiens, UniProt P10721); test: Binding affinity to human KIT
Mast/stem cell growth factor receptor Kit, sequence (P10721 whole entry): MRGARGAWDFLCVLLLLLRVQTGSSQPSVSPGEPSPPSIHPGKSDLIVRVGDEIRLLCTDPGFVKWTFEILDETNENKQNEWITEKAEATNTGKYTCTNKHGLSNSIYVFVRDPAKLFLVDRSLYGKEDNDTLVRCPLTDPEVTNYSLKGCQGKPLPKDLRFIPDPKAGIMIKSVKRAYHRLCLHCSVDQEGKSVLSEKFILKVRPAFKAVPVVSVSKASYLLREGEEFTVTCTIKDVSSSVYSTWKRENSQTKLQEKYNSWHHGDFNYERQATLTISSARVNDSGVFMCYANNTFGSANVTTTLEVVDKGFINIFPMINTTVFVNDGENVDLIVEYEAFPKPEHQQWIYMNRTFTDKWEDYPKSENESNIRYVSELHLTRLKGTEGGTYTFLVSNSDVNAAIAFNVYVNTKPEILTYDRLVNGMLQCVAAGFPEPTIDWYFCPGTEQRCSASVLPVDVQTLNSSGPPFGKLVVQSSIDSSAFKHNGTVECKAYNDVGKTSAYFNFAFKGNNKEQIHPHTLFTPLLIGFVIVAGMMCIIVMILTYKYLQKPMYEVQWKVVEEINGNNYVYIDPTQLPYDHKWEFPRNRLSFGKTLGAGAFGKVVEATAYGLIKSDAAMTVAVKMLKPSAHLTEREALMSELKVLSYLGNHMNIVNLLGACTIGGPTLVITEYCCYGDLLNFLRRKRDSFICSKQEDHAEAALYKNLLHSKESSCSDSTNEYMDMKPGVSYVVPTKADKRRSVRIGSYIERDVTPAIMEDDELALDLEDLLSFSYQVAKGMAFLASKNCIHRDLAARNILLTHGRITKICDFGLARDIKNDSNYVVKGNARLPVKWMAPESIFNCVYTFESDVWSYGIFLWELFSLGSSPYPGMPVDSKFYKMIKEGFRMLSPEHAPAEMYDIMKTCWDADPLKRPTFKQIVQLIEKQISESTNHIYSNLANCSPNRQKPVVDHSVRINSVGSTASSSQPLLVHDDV

[12] = biological target: T3, Dual specificity mitogen-activated protein kinase kinase 5 (Homo sapiens, UniProt Q13163); test: Binding affinity to human MEK5
T3 sequence (Q13163 whole entry): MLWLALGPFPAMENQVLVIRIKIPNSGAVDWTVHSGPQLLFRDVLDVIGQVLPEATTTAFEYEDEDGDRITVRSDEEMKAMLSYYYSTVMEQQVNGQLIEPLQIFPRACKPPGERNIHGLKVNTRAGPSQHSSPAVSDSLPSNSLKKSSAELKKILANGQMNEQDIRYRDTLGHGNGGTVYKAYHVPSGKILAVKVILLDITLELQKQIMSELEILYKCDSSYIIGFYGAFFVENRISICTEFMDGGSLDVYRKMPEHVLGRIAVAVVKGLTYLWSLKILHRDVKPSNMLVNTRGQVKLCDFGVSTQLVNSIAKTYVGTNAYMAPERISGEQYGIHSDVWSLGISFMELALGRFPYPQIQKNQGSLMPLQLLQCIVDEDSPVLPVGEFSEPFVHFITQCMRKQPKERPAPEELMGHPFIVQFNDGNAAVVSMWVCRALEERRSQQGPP

[13] = biological target: Platelet-derived growth factor receptor alpha (Homo sapiens, UniProt P16234); test: Binding affinity to human PDGFRalpha
Platelet-derived growth factor receptor alpha, sequence (P16234 whole entry): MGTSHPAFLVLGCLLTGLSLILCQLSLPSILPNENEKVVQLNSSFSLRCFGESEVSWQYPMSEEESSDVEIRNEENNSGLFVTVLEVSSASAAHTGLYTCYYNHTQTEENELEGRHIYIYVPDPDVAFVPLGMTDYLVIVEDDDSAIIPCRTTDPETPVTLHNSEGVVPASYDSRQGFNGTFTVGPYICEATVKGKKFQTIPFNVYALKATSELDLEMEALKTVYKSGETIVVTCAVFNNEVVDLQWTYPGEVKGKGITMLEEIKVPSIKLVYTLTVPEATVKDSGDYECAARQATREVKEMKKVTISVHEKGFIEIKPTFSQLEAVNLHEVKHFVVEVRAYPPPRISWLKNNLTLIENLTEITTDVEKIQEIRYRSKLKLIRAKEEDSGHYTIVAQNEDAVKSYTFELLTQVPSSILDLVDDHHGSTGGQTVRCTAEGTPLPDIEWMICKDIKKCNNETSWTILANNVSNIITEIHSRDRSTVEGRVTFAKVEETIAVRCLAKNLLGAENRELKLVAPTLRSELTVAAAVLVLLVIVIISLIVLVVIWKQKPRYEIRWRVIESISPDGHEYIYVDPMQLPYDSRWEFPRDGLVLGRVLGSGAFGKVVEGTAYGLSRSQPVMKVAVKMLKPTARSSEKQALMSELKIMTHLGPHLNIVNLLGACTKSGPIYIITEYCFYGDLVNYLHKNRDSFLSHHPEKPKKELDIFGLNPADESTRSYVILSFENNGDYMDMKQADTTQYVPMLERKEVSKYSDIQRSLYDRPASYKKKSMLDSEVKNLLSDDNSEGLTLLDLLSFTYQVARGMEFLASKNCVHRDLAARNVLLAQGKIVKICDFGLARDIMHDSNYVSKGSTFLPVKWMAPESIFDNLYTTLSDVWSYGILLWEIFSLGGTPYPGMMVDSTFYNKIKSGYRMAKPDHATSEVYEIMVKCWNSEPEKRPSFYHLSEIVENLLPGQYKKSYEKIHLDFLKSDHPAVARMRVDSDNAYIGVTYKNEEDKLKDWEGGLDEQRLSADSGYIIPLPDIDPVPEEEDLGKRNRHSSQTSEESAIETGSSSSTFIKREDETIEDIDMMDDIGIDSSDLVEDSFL

[14] = biological target: Platelet-derived growth factor receptor beta (Homo sapiens, UniProt P09619); test: Binding affinity to human PDGFRbeta
Platelet-derived growth factor receptor beta, sequence (P09619 whole entry): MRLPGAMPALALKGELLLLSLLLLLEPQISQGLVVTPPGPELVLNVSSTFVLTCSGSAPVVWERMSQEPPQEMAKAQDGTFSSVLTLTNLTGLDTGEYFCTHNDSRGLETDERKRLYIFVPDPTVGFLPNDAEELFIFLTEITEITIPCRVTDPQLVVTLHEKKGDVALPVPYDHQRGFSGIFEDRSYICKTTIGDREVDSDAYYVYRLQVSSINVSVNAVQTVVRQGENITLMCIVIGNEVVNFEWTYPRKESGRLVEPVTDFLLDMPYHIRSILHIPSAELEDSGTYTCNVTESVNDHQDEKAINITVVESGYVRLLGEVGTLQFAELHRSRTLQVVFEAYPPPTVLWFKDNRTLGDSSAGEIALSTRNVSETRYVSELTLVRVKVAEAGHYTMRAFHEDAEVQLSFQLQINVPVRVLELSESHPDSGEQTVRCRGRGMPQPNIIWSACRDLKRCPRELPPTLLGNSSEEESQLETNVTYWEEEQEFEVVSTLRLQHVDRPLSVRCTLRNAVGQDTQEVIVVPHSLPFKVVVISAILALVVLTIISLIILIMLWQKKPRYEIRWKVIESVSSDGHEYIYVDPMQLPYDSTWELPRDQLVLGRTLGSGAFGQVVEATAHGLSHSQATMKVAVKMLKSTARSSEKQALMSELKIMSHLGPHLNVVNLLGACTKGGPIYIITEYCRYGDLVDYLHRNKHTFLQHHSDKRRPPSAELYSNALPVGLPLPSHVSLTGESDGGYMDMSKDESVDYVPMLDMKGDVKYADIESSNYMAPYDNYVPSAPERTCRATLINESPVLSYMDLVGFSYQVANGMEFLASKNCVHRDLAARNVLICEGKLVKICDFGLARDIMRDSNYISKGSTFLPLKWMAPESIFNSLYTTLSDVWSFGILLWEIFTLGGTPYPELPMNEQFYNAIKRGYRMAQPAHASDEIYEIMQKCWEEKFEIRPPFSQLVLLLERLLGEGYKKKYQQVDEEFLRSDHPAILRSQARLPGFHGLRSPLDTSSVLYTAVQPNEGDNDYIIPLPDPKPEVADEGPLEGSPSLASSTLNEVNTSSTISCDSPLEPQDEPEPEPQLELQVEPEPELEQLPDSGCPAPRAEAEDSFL

Compound: COc1ccc(-c2cnc3c(N4CCOCC4)snc3c2)cc1OC
- Kd [1]: 52 nM

Compound: c1cc(-c2cnc3c(N4CCOCC4)snc3c2)cs1
- Kd [1]: 42 nM

Compound: c1cc(-c2cnc3c(N4CCOCC4)snc3c2)co1
- Kd [1]: 200 nM

Compound: COc1ccc(OC)c(-c2cnc3c(N4CCOCC4)snc3c2)c1
- Kd [1]: 130 nM

Compound: COc1cc(OC)cc(-c2cnc3c(N4CCOCC4)snc3c2)c1
- Kd [1]: 72 nM

Compound: COc1cc(-c2cnc3c(N4CCOCC4)snc3c2)cc(OC)c1OC
- EC50 (Hepatitis C virus [2]): 2550 nM
- CC50 [3]: 23.3 µM
- EC50 (Hepatitis C virus [4]): 3.6 µM
- Activity [5]: Non-toxic
- EC50 (Hepatitis C virus [6]): 1640 nM
- EC50 (Hepatitis C virus [7]): 2130 nM
- Kd [8]: 710 nM
- Kd [9]: 320 nM
- Kd [10]: 110 nM
- Kd [11]: 29 nM
- Kd [12]: 150 nM
- Kd [13]: 220 nM
- Kd [14]: 70 nM

Compound: COc1cc(-c2cnc3c(N4CCOCC4)snc3c2)ccc1OC(C)=O
- Kd [1]: 18 nM

Compound: COc1cc(-c2cnc3c(N4CCOCC4)snc3c2)ccc1N
- Activity [5]: Non-toxic

Compound: COc1cc(-c2cnc3c(N4CCOCC4)snc3c2)ccc1O
- Kd [1]: 18 nM

Compound: C#Cc1cccc(Nc2ncnc3cc(OCCOC)c(OCCOC)cc23)c1 [ERLOTINIB]
- EC50 (Hepatitis C virus [2]): 500 nM
- EC50 (Hepatitis C virus [6]): 500 nM
- EC50 (Hepatitis C virus [7]): 500 nM
